The results in this text go back to patent publication US6410594B1, “Substituted cyclopentane compounds useful as neuraminidase inhibitors” (Biocryst Pharmaceuticals, Inc., priority 1996, dated 2002).

Data set [1] addresses H1N9 Influenza Neuraminidase (Influenza A virus, UniProt P03472). Put plainly: biochemical. Also on record: species or system influenza virus (H1N9 strain). The conditions noted are these: 10 min at 37° C.; read-out: Inhibition of H1N9 Influenza Neuraminidase IC50.

The term melting point denotes the temperature, or range, at which the solid turns liquid. As a reminder, the IC50 is the concentration that gives 50% inhibition.

The structures appear in SMILES notation. Counter-ions that a name gives are not always drawn.

Sequence of H1N9 Influenza Neuraminidase (P03472 83-470 limits assumed): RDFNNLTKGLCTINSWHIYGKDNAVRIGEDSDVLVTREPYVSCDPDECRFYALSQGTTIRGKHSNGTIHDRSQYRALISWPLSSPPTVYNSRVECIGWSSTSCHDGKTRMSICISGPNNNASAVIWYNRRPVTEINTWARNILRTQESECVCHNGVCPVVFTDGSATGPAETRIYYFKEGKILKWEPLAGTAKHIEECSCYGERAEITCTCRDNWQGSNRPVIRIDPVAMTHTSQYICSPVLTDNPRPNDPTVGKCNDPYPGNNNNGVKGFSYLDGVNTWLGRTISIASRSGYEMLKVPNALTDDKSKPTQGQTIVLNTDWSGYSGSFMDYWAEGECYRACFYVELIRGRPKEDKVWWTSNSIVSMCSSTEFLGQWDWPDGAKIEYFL

As to `CC(=O)NC(COCc1ccccc1)[C@H]1C[C@@](O)(C(=O)O)C[C@@H]1N` (some centres unmarked) (as salt: ammonium), the melting point fell in the range of 37 to 39 °C.

As to `CC(=O)NC(CO)[C@H]1C[C@@](O)(C(=O)O)C[C@@H]1N` (some centres unmarked) (as salt: ammonium), the melting point is 83 to 85 °C.

The molecule `CCC=CC(NC(C)=O)[C@H]1CC(C(=O)O)C[C@@H]1NC(=N)N` (some centres unmarked) (as salt: salt) yielded a melting point of 62 to 64 °C.

Molecule `CON(C)CCC(=O)C(NC(C)=O)[C@H]1CC(C(=O)O)C[C@@H]1NC(=N)N` (some centres unmarked) (as salt: salt) [Example 20] returned a melting point of 189 to 192 °C.

Molecule `CCCN(CCC)C(=O)C(NC(C)=O)[C@H]1C[C@@](O)(C(=O)O)C[C@@H]1NC(=N)N` (some centres unmarked) (as salt: salt) [Example 23, t-3-{[(Amino)(imino)methyl]amino}-c-4-[(di-n-propylaminocarbonyl)(methylcarbonylamino)-methyl]-t-hydroxycyclpentan-r-carboxylic acid trifluoroacetic acid (4:5)] showed a melting point of 153 to 155 °C.

`CC(=O)NC[C@@H]1C[C@H](C(=O)O)C[C@H]1NC(=N)N` (relative stereo) [Example 3, t-3-{[(Amino)(imino)methyl]amino}-c-4-[(methylcarbonylamino)methyl]-cyclopentan-r-carboxylic acid trifluoroacetic acid [1:1.25]]: the IC50 in data set [1] was found to be 115 µM.

As to `N=C(N)NC[C@@H]1C[C@H](C(=O)O)C[C@H]1NC(=N)N` (relative stereo) [Example 5, t-3-{[(Amino)(imino)methyl]amino}-c-4-{{[(amino)(imino)methyl]amino}methyl}cyclopentan-r-carboxylic acid dihydrochloride hydrate 2-propanol (5:10:5:2)], the IC50 in data set [1] was 280 µM.

As for `CC(=O)NC(C(O)C(O)CO)[C@H]1CC(C(=O)O)C[C@@H]1N` (single isomer, unassigned) (as salt: salt), the melting point lay within 58 to 62 °C.

`CCCN(CCC)C(=O)C(NC(C)=O)[C@H]1C[C@@](O)(C(=O)O)C[C@@H]1N` (single isomer, unassigned) (as salt: salt) came in with a melting point of 168 to 170 °C.

On to `CCN(CC)C(=O)C(NC(C)=O)[C@H]1C[C@@H](C(=O)O)C[C@@H]1NC(=N)N` (single isomer, unassigned) (as salt: trifluoroacetic acid salt), for which the melting point is > 110 °C (dec.).

`CC(=O)NC(C(O)C(O)CO)[C@H]1CC(C(=O)O)C[C@@H]1NC(=N)N` (single isomer, unassigned; isomer a) (as salt: salt) [Example 12, 3β-{[(Amino)(imino)methyl]amino}-4α-[(1-methylcarbonylamino) (2,3,4-trihydroxy)butyl)butyl]-cyclonentancarboxylic acid trifluoroacetic acid (1:2) (isomer A at C-1, isomer A at C-6, isomer B at C-7)] registered a melting point of 76 to 80 °C.

In turn, `CC(=O)NC(COC(=O)C(F)(F)F)[C@H]1C[C@](O)(C(=O)O)C[C@@H]1NC(=N)N` (single isomer, unassigned; isomer a) (as salt: salt) [Example 16, c-3-{[(Amino)(imino)methyl]amino}-t-1-hydroxy-t-4-[(1-methylcarbonylamino)(2-trifluoromethyl-carbonyloxy)ethyl]cyclopentan-r-carboxylic acid trifluoroacetic acid (4:1) (isomer A at C-6)] gave a melting point of 148 to 160 °C.

Take `CC(=O)NC(CO)[C@H]1C[C@@](O)(C(=O)O)C[C@@H]1NC(=N)N` (single isomer, unassigned; isomer a) [Example 9, t-3-{[(Amino)(imino)methyl]amino}-t-1-hydroxy-c-4-[(2-hydroxymethyl)(1-methylcarbonyl-amino)ethyl]cyclopentan-r-carboxylic acid trifluoroacetic acid diethyl ether [20:15:2] (isomer A at C-6)]: the IC50 in data set [1] was determined as 600 µM.

As to `CC(=O)NC(C(O)C(O)CO)[C@H]1CC(C(=O)O)C[C@@H]1N` (single isomer, unassigned; isomer a) [Example 10, 3β-amino-4α-[(1-methylcarbonylamino)(2,3,4-trihydroxy)butyl]cyclopentancarboxylic acid trifluoroacetic acid (1:1) (isomer A at C-6)], the concentration for half-maximal inhibition (IC50) in data set [1] was 600 µM.

Turning to `CC(=O)NC(C(O)C(O)CO)[C@H]1CC(C(=O)O)C[C@@H]1NC(=N)N` (single isomer, unassigned; isomer a) [Example 12, 3β-{[(Amino)(imino)methyl]amino}-4α-[(1-methylcarbonylamino) (2,3,4-trihydroxy)butyl)butyl]-cyclonentancarboxylic acid trifluoroacetic acid (1:2) (isomer A at C-1, isomer A at C-6, isomer B at C-7)], in data set [1], the IC50 is 7.5 µM.

For `CC(=O)NC(COC(=O)C(F)(F)F)[C@H]1C[C@](O)(C(=O)O)C[C@@H]1NC(=N)N` (single isomer, unassigned; isomer a) [Example 16, c-3-{[(Amino)(imino)methyl]amino}-t-1-hydroxy-t-4-[(1-methylcarbonylamino)(2-trifluoromethyl-carbonyloxy)ethyl]cyclopentan-r-carboxylic acid trifluoroacetic acid (4:1) (isomer A at C-6)], the IC50 in data set [1] was determined as 70 µM.

On to `CC(=O)NC(C(O)C(O)CO)[C@H]1CC(C(=O)O)C[C@@H]1NC(=N)N` (single isomer, unassigned; isomer b) (as salt: salt) [Example 13, 3β-{[(Amino)(imino)methyl]amino}-4α-[(1-methylcarbonylamino)(2,3,4-trihydroxy)butyl]-cyclopentancarboxylic acid trifluoroacetic acid (1:2) (isomer B at C-1, isomer A at C-6, isomer B at C-7)], for which the melting point is 124 to 128 °C.

As for `CC(=O)NC(C(O)C(O)CO)[C@H]1CC(C(=O)O)C[C@@H]1NC(=N)N` (single isomer, unassigned; isomer b) (as salt: salt) [Example 14, 3β-{[(Amino)(imino)methyl]amino}-4α-[(1-methylcarbonylamino)(2,3,4-trihydroxy)butyl]cyclo-pentancarboxylic acid trifluoroacetic acid (4:9) (isomer B at C-6, isomer A at C-1, C-7 and/or C-8)], the melting point was 125 to 135 °C.

`CC(=O)NC(C(O)C(O)CO)[C@H]1CC(C(=O)O)C[C@@H]1NC(=N)N` (single isomer, unassigned; isomer b) (as salt: salt) [Example 15, 3β-{[(Amino)(imino)methyl]amino}-4α-[(1-methylcarbonylamino)(2,3,4-trihydroxy)butyl]cyclo-pentancarboxylic acid trifluoroacetic acid (5:13) (isomer B at C-6, isomer B at C-1, C-7 and/or C-8)] had a melting point of 140 to 145 °C.

With `CC(=O)NC(COC(=O)C(F)(F)F)[C@H]1C[C@](O)(C(=O)O)C[C@@H]1NC(=N)N` (single isomer, unassigned; isomer b) (as salt: salt) [Example 17, c-3-{[(Amino)(imino)methyl]amino}-t-1-hydroxy-t-4-[(1-methylcarbonylamino)(2-trifluoromethyl-carbonyloxy)ethyl]cyclopentan-r-carboxylic acid trifluoroacetic acid (4:3) (isomer B at C-6)], the melting point lay within 210 to 220 °C.

Regarding `CC(=O)NC(CO)[C@H]1CC(C(=O)[O-])C[C@@H]1NC(=N)N.[Na+]` (single isomer, unassigned; isomer b) (hydrate or solvate) [Example 7, Sodium 3β-{[(amino)(imino)methyl]amino}-4α-[(2-hydroxy)(1-methylcarbonylamino)ethyl]-cyclopentan-r-carboxylate:diethylether:hydrate (12:4:3), isomer B], the melting point was found to be 65 °C.

On to `CC(=O)NC(CO)[C@H]1CC(C(=O)O)C[C@@H]1NC(=N)N` (single isomer, unassigned; isomer b) [Example 7, Sodium 3β-{[(amino)(imino)methyl]amino}-4α-[(2-hydroxy)(1-methylcarbonylamino)ethyl]-cyclopentan-r-carboxylate:diethylether:hydrate (12:4:3), isomer B], for which the concentration for half-maximal inhibition (IC50) in data set [1] is 3800 µM.

On to `CC(=O)NC(C(O)C(O)CO)[C@H]1CC(C(=O)O)C[C@@H]1NC(=N)N` (single isomer, unassigned; isomer b) [Example 13, 3β-{[(Amino)(imino)methyl]amino}-4α-[(1-methylcarbonylamino)(2,3,4-trihydroxy)butyl]-cyclopentancarboxylic acid trifluoroacetic acid (1:2) (isomer B at C-1, isomer A at C-6, isomer B at C-7)], for which the IC50 in data set [1] was found to be 4.3 µM.

Regarding `CC(=O)NC(C(O)C(O)CO)[C@H]1CC(C(=O)O)C[C@@H]1NC(=N)N` (single isomer, unassigned; isomer b) [Example 14, 3β-{[(Amino)(imino)methyl]amino}-4α-[(1-methylcarbonylamino)(2,3,4-trihydroxy)butyl]cyclo-pentancarboxylic acid trifluoroacetic acid (4:9) (isomer B at C-6, isomer A at C-1, C-7 and/or C-8)], the 50% inhibitory concentration (IC50) in data set [1] is 40 µM.

In the case of `CC(=O)NC(C(O)C(O)CO)[C@H]1CC(C(=O)O)C[C@@H]1NC(=N)N` (single isomer, unassigned; isomer b) [Example 15, 3β-{[(Amino)(imino)methyl]amino}-4α-[(1-methylcarbonylamino)(2,3,4-trihydroxy)butyl]cyclo-pentancarboxylic acid trifluoroacetic acid (5:13) (isomer B at C-6, isomer B at C-1, C-7 and/or C-8)], the IC50 in data set [1] worked out at 50 µM.

Regarding `CC(=O)NC(COC(=O)C(F)(F)F)[C@H]1C[C@](O)(C(=O)O)C[C@@H]1NC(=N)N` (single isomer, unassigned; isomer b) [Example 17, c-3-{[(Amino)(imino)methyl]amino}-t-1-hydroxy-t-4-[(1-methylcarbonylamino)(2-trifluoromethyl-carbonyloxy)ethyl]cyclopentan-r-carboxylic acid trifluoroacetic acid (4:3) (isomer B at C-6)], in data set [1], the IC50 turned out to be 2000 µM.
